T1: ValL (Streptomyces hygroscopicus, UniProt H2K885)
T1 construct: dimer; selenomethionine-labelled for the 3T7D data set
T1 sequence (H2K885 1-497): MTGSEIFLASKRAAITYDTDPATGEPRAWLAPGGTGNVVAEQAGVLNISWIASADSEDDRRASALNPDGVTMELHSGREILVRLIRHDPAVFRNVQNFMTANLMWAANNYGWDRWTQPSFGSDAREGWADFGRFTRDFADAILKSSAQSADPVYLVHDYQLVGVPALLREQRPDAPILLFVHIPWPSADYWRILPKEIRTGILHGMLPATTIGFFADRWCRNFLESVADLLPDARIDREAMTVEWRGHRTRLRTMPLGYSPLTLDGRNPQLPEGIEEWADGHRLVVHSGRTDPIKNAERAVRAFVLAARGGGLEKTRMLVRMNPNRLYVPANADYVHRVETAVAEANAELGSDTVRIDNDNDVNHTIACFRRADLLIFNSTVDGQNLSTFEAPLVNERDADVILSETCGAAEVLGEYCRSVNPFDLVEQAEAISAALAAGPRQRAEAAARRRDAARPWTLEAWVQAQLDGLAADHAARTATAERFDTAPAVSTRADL


Assays:
[1] = molecular target: T1, ValL; assay: X-ray crystallography (co-crystal, […] Å); format: binding; conditions: product analog; active site between N- and C-terminal domains; 5 mM trehalose incubated, 30% trehalose in cryoprotectant; pH 8.5, MgCl2; SeMet protein
[2] = molecular target: the molecule itself; assay: dynamic scattering; in solution; data not shown; conditions not given

Row | Molecule | X-ray crystallography (co-crystal, 1.7 Å) [1] | stoichiometry N [2]
1 | OC[C@H]1O[C@H](O[C@H]2O[C@H](CO)[C@@H](O)[C@H](O)[C@H]2O)[C@H](O)[C@@H](O)[C@@H]1O [trehalose] | The co-crystallization of ValL/trehalose led to the determination of ValL/trehalose complex structure. | –
2 | Validoxylamine A 7'-phosphate synthase ValL (enzyme, ValL, validoxylamine A 7'-phosphate synthase of the validamycin A gene cluster of Streptomyces hygroscopicus var. jinggangensis 5008; the encoded protein has 497 aa; gene valL cloned into pET28a between EcoRI and BamHI sites; Removal of the tag is not mentioned; The ValL/trehalose structure (3T7D) was obtained from selenomethionine-labelled ValL; the apo structure (3T5T) from native ValL; also …) TGSEIFLASKRAAITYDTDPATGEPRAWLAPGGTGNVVAEQAGVLNISWIASADSEDDRRASALNPDGVTMELHSGREILVRLIRHDPAVFRNVQNFMTANLMWAANNYGWDRWTQPSFGSDAREGWADFGRFTRDFADAILKSSAQSADPVYLVHDYQLVGVPALLREQRPDAPILLFVHIPWPSADYWRILPKEIRTGILHGMLPATTIGFFADRWCRNFLESVADLLPDARIDREAMTVEWRGHRTRLRTMPLGYSPLTLDGRNPQLPEGIEEWADGHRLVVHSGRTDPIKNAERAVRAFVLAARGGGLEKTRMLVRMNPNRLYVPANADYVHRVETAVAEANAELGSDTVRIDNDNDVNHTIACFRRADLLIFNSTVDGQNLSTFEAPLVNERDADVILSETCGAAEVLGEYCRSVNPFDLVEQAEAISAALAAGPRQRAEAAARRRDAARPWTLEAWVQAQLDGLAADHAARTATAERFDTAPAVSTRADL | – | 2
